In US20260042764A1, “COMPOSITIONS AND METHODS FOR INHIBITION OF KRAS” (TheRas, Inc., priority 2022, published 2026):

Legend:
[1] = target: T1, Avi-KRAS WT (1-169) GppNHp/RAF1 RBD-3xFLAG (52-151) (Homo sapiens, UniProt P01116); test: Raf1-KRAS WT-GppNHP disruption HTRF assay (Biological Example 1); format: binding; conditions: KRAS WT, GppNHp-loaded; Table 11
T1 construct: Avi-KRAS WT (1-169)
Experimental: (§1) A protein:protein interaction (PPI) Homogeneous Time Resolved Fluorescence (HTRF) assay was used to determine the effectiveness of compounds of the present disclosure in disrupting KRAS protein and effector RAF1 binding.
(§2) The assay buffer included: 50 mM Tris pH 7.5, 100 mM NaCl, 5 mM MgCl2, 0.1% BSA, 0.01% Tween, and 10% DMSO. The bead buffer included: 50 mM Tris pH 7.5, and 0.01% Tween 20. Assay volume of 20 μL was used in a 384 well plate-low volume format.
(§3) The HTRF assay employed the following protocol:
(§4) Protein mix was prepared in assay buffer, and dispensed on plates, 10 μL per well, then incubated for 1 h at room temperature, with 700 rpm shaking, Reagents mix was prepared and dispensed on plates, 10 μL per well, then incubated for 1 h at room temperature, with 700 rpm shaking.
(§5) Data was reported as percentage of activity, with DMSO as 100%. Data was plotted and analyzed using Prism 8.

[2] = target: T2, Avi-KRAS G12R (1-169) GppNHp/RAF1 RBD-3xFLAG (52-151) (Homo sapiens, UniProt P01116, G12R); test: Raf1-KRAS G12R-GppNHP disruption HTRF assay (Biological Example 1); format: binding; conditions: KRAS G12R, GppNHp-loaded; Table 11
T2 construct: Avi-KRAS G12R (1-169)
T2 sequence (P01116 1-169 isoform P01116-2 G12R): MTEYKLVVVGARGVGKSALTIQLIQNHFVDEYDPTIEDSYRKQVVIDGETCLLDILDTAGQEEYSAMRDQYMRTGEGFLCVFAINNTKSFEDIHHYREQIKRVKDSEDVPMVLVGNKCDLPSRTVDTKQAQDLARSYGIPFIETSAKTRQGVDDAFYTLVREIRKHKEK
Experimental: as §1, §2, §3, §4, §5

[3] = target: T3, Avi-KRAS G12D (1-169) GppNHp/RAF1 RBD-3xFLAG (52-151) (Homo sapiens, UniProt P01116, G12D); test: Raf1-KRAS G12D-GppNHP disruption HTRF assay (Biological Example 1); format: binding; conditions: KRAS G12D, GppNHp-loaded; Table 11
T3 construct: Avi-KRAS G12D (1-169)
T3 sequence (P01116 1-169 isoform P01116-2 G12D): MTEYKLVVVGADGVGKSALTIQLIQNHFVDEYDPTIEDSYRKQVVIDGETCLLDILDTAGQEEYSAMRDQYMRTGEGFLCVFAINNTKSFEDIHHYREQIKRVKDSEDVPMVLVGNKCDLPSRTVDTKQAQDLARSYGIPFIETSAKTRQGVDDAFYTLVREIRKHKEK
Experimental: as §1, §2, §3, §4, §5

GP2d cells (KRAS G12D) = test: Cell-based pERK HTRF assay in GP2d cell (Biological Example 2); conditions: GP2d, GP2d (KRAS G12D) cells, pERK HTRF
Experimental: A pERK assay (Perkin Elmer) was used to determine the effectiveness of compounds in disrupting KRAS G12D protein/effector signaling in cells.
On Day 1, cells (GP2d) were seeded into 96-well plates at 3×10^4 cells/well in 80 μL complete growth media (DMEM, 10% FBS).
On Day 2, cells were treated with compounds at 0.25% DMSO. The source plate was created with compounds diluted in media at 5-fold the final assay concentration. The compounds were run in a 9-point concentration curve starting at 1 μM or in a 9-point concentration curve starting at 100 nM, with a half-log dilution between concentrations. Twenty μL was transferred onto the cell plates (final volume in wells was 100 μL). Plates were harvested after 60 min incubation by aspirating media and adding kit-supplied 1x supplemented lysis buffer to all wells (50 μL per well). Plates were then placed on a plate shaker and incubated at 850 rpm for an additional 30 min.
Antibody mixture solution was prepared by diluting aliquoted d2 and Eu Cryptate antibodies 1:20 in kit supplied detection buffer, and mixing the diluted antibodies solutions (1:1 v:v).
Samples were homogenized by pipetting up and down and then transferred (16 μL of cell lysates) from the 96-well cell culture plate to two wells of the HTRF 384-well detection plate containing the antibody solution. Plates were centrifuged (524 g for 1 min) and allowed to incubate between 4 and 24 h at room temperature. Maximum signal is reached after 4 h incubation time and remains stable over a period of 24 hours. Therefore, readings can be made between 4 and 24 h of incubation. Plates were centrifuged again (524 g for Imin), then analyzed on the EnVision plate reader using the following settings: Excitation 320 nm, Bandwidth 75 nm; Emission 615 nm, Bandwidth 85 nm; Gain 100%; Flashes 100; Lag 60 μs.

[4] = target: T4, Avi-KRAS G12V (1-169) GppNHp/RAF1 RBD-3xFLAG (52-151) (Homo sapiens, UniProt P01116, G12V); test: Raf1-KRAS G12V-GppNHP disruption HTRF assay (Biological Example 1); format: binding; conditions: KRAS G12V, GppNHp-loaded; Table 11
T4 construct: Avi-KRAS G12V (1-169)
T4 sequence (P01116 1-169 isoform P01116-2 G12V): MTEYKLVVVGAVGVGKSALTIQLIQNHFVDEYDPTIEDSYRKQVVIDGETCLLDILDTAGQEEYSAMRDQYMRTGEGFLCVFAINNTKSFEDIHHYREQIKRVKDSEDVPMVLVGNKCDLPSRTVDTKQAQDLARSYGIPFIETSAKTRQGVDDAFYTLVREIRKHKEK
Experimental: as §1, §2, §3, §4, §5

T1 sequence (P01116 1-169 isoform P01116-2): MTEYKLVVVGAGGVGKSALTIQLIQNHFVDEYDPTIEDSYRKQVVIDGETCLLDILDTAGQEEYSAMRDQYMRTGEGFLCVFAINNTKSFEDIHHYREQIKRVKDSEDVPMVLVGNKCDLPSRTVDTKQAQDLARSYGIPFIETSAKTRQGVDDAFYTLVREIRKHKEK

SMILES | IC50 [1] | IC50 [2] | IC50 [3] | IC50 (GP2d cells (KRAS G12D)) | IC50 [4]
CO[C@@H]1C[C@@H](COc2nc(N(C)C3CC(O)C3)c3cc(C(F)(F)F)c(-c4ccc(F)c5sc(N)c(C#N)c45)c(F)c3n2)N(C)C1 (stereo partly shown) [Compound 40] | 0.1 to 1 µM | 0.1 to 1 µM | 0.1 to 1 µM | < 0.1 µM | 0.1 to 1 µM
CCN(C)c1nc(OC[C@@]23CCCN2C[C@H](F)C3)nc2c(F)c(-c3ccc(F)c4sc(N)c(C#N)c34)c(C(F)(F)F)cc12 [Compound 81, 2-amino-4-[4-[ethyl(methyl)amino]-8-fluoro-2-[[(2R,8S)-2-fluoro-1,2,3,5,6,7-hexahydropyrrolizin-8-yl]methoxy]-6-(trifluoromethyl)quinazolin-7-yl]-7-fluoro-benzothiophene-3-carbonitrile] | 0.1 to 1 µM | < 0.1 µM | < 0.1 µM | < 0.1 µM | 0.1 to 1 µM
CCN(CC)c1nc(OC[C@@]23CCCN2C[C@H](F)C3)nc2c(F)c(-c3ccc(F)c4sc(N)c(C#N)c34)c(C(F)(F)F)cc12 [Compound 152] | 0.1 to 1 µM | 0.1 to 1 µM | < 0.1 µM | < 0.1 µM | 0.1 to 1 µM
Nc1nc2c(-c3c(C(F)(F)F)cc4c(N5CCC(CO)C5)nc(OCC56CCCN5CCC6)nc4c3F)ccc(F)c2s1 (stereo not shown) [Compound 56] | 1 to 10 µM | > 10 µM | 1 to 10 µM |  | > 10 µM
CN(c1nc(OCC23CCCN2CCC3)nc2c(F)c(-c3ccc(F)c4sc(N)nc34)c(C(F)(F)F)cc12)C1CC(O)C12CCCC2 (single isomer, unassigned) [Compound 10] | > 10 µM | > 10 µM | > 10 µM |  | > 10 µM
CN(c1nc(OCC2(CN3CCOCC3)CC2)nc2c(F)c(-c3ccc(F)c4sc(N)nc34)c(C(F)(F)F)cc12)[C@H]1C[C@@H](O)C1 (atropisomer, axis not shown) [Compound 16] | 1 to 10 µM | 1 to 10 µM | 1 to 10 µM |  | 1 to 10 µM
Nc1nc2c(-c3c(C(F)(F)F)cc4c(N5CCC(O)C5)nc(OCC56CCCN5CCC6)nc4c3F)ccc(F)c2s1 (stereo not shown) [Compound 55] | 1 to 10 µM | > 10 µM | 1 to 10 µM |  | > 10 µM
Nc1nc2c(-c3c(C(F)(F)F)cc4c(N5CCC(CO)CC5)nc(OCC56CCCN5CCC6)nc4c3F)ccc(F)c2s1 [Compound 43] | 0.1 to 1 µM | 1 to 10 µM | 0.1 to 1 µM |  | 1 to 10 µM
N#Cc1c(N)sc2c(F)ccc(-c3c(C(F)(F)F)cc4c(N5CC6(CC(O)C6)C5)nc(OC[C@@]56CCCN5C[C@H](F)C6)nc4c3F)c12 [Compound 58] | 0.1 to 1 µM |  | 0.1 to 1 µM | 0.1 to 1 µM | 0.1 to 1 µM
CN(c1nc(OC[C@@]23CCCN2C[C@H](F)C3)nc2c(F)c(-c3ccc(F)c4sc(N)nc34)c(C(F)(F)F)cc12)[C@H]1C[C@@H](O)C1 (atropisomer, axis not shown) [Compound 8] | 0.1 to 1 µM | 1 to 10 µM | 0.1 to 1 µM |  | 0.1 to 1 µM
Nc1nc2c(-c3c(C(F)(F)F)cc4c(N5CC(CO)C5)nc(OCC56CCCN5CCC6)nc4c3F)ccc(F)c2s1 [Compound 57] | 1 to 10 µM | 1 to 10 µM | 1 to 10 µM |  | > 10 µM
Nc1nc2c(-c3c(C(F)(F)F)cc4c(NC[C@@H]5CC[C@H](CO)C5)nc(OCC56CCCN5CCC6)nc4c3F)ccc(F)c2s1 [Compound 68] | > 10 µM | > 10 µM | > 10 µM |  | 1 to 10 µM
CN(c1nc(OC[C@@]23CCCN2C[C@H](F)C3)nc2c(F)c(-c3ccc(F)c4sc(N)c(C#N)c34)c(C(F)(F)F)cc12)[C@]1(CC#N)C[C@H](O)C1 (atropisomer, axis not shown) [Compound 249] | 0.1 to 1 µM | 0.1 to 1 µM | 0.1 to 1 µM |  | 1 to 10 µM
CN(c1nc(OCC2(CN3CCOCC3)CC2)nc2c(F)c(-c3ccc(F)c4sc(N)c(C#N)c34)c(C(F)(F)F)cc12)[C@H]1C[C@@H](O)C1 (atropisomer, axis not shown) [Compound 122] | 0.1 to 1 µM | 0.1 to 1 µM | 0.1 to 1 µM |  | 0.1 to 1 µM
CN(c1nc(OCC23CCCN2CCC3)nc2c(F)c(-c3ccc(F)c4sc(N)nc34)c(C(F)(F)F)cc12)[C@H]1C[C@H](CO)C1 (atropisomer, axis not shown) [Compound 1] | 1 to 10 µM |  | 1 to 10 µM |  | > 10 µM
Nc1nc2c(-c3c(C(F)(F)F)cc4c(N5CCCC(O)C5)nc(OCC56CCCN5CCC6)nc4c3F)ccc(F)c2s1 (stereo not shown) [Compound 53] | > 10 µM | 1 to 10 µM | 1 to 10 µM |  | > 10 µM
CN(c1nc(OC[C@@]23CCCN2C[C@H](F)C3)nc2c(F)c(-c3ccc(F)c4sc(N)c(C#N)c34)c(C(F)(F)F)cc12)[C@H]1C[C@@H](F)C1 (atropisomer, axis not shown) [Compound 160] | 0.1 to 1 µM | 0.1 to 1 µM | 0.1 to 1 µM |  | 1 to 10 µM
CO[C@@H]1C[C@@H](COc2nc(N(C)[C@H]3C[C@@H](O)C3)c3cc(C(F)(F)F)c(-c4ccc(F)c5sc(N)nc45)c(F)c3n2)N(C)C1 (atropisomer, axis not shown) [Compound 17] | 1 to 10 µM |  | > 10 µM |  | > 10 µM
CN(c1nc(OCC23CCCN2CCC3)nc2c(F)c(-c3ccc(F)c4sc(N)nc34)c(C(F)(F)F)cc12)[C@H]1C[C@@H](O)C1 (atropisomer, axis not shown) [Compound 2] | 0.1 to 1 µM |  | 0.1 to 1 µM |  | 1 to 10 µM
CN(c1nc(OCC23CCCN2CCC3)nc2c(F)c(-c3ccc(F)c4sc(N)nc34)c(-c3ccoc3)cc12)[C@H]1C[C@@H](O)C1 [Compound 6] | 1 to 10 µM |  | 1 to 10 µM |  | > 10 µM
CO[C@H]1CN2CCC[C@@]2(COc2nc(N(C)[C@H]3C[C@@H](O)C3)c3cc(C(F)(F)F)c(-c4ccc(F)c5sc(N)nc45)c(F)c3n2)C1 (atropisomer, axis not shown) [Compound 13] | 0.1 to 1 µM |  | 0.1 to 1 µM |  | 1 to 10 µM
Nc1nc2c(-c3c(C(F)(F)F)cc4c(N[C@H]5CC[C@@H](O)CC5)nc(OCC56CCCN5CCC6)nc4c3F)ccc(F)c2s1 [Compound 64] | 1 to 10 µM | 1 to 10 µM | 1 to 10 µM |  | 1 to 10 µM
Nc1nc2c(-c3c(C(F)(F)F)cc4c(N[C@H]5CC[C@H](O)C5)nc(OCC56CCCN5CCC6)nc4c3F)ccc(F)c2s1 (atropisomer, axis not shown) [Compound 61] | 1 to 10 µM |  | 1 to 10 µM |  | > 10 µM
Nc1nc2c(-c3c(C(F)(F)F)cc4c(N5CCC(O)CC5)nc(OCC56CCCN5CCC6)nc4c3F)ccc(F)c2s1 [Compound 51] | 1 to 10 µM |  | 1 to 10 µM |  | > 10 µM
CN(c1nc(OCC23CCCN2CCC3)nc2c(F)c(-c3ccc(F)c4sc(N)nc34)c(C(F)(F)F)cc12)C1CC(CO)C1 (stereo not shown) [Compound 4] | 1 to 10 µM | > 10 µM | 1 to 10 µM |  | > 10 µM
CN(c1nc(OCC23CCCN2CCC3)nc2c(F)c(-c3ccc(F)c4sc(N)nc34)c(C(F)(F)F)cc12)[C@@H]1CC[C@H](O)C1 (atropisomer, axis not shown) [Compound 62] | 1 to 10 µM | 1 to 10 µM | 1 to 10 µM |  | > 10 µM
